Data from patent publication US8993526B2, “Method for counteracting the perception of sweat malodour by decreasing the function of carboxylic acid-binding olfactory receptors” (ChemCom S.A., priority 2011, dated 2015).

Key:
Format in all cases: cell-based
Conditions in all cases: tested at 1 mM, 316 μM, 100 μM; hit = luciferase activity >= median + 2 standard deviations
OR56A5 = molecular target: T1, OR56A5 (Homo sapiens, UniProt P0C7T3, R311K/V104M); assay: CRE-luciferase reporter assay, OR56A5 in HEK293T-RTP1A1/RTP2 cells
T1 construct: expressed in transfected cells; host or cells: HEK293T-RTP1A1/RTP2
T1 sequence (P0C7T3 1-313 V104M/R311K): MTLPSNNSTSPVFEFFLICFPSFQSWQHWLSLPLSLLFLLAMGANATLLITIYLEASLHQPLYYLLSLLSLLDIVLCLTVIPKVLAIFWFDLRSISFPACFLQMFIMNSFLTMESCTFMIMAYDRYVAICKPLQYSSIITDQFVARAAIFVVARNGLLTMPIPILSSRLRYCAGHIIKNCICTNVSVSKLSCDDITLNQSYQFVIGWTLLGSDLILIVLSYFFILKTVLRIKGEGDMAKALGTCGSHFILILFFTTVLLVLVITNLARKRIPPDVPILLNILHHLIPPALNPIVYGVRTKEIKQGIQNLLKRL
Procedure: (§1) Cells were maintained in minimal essential medium (EMEM, Lonza) containing 10% fetal bovine serum (M10). HEK293T-RTP1A1/RTP2 cells were generated by transfecting HEK293T with an expression vector containing the sequences of the chaperone proteins RTP1A1 and RTP2 and a resistance gene to puromycin, using Lipofectamine 2000. A recombinant cell population was selected by adding 10 μg/ml of puromycin into the culture medium. Monoclonal populations were further obtained by limit dilution procedure. Briefly, a cell suspension was diluted to contain 1 cell per ml and this dilution was dispatched in poly-D-lysine-coated 96 wells plates (200 μl of dilution per well). After 5 days of culture, the presence and number of cell colonies per well was checked under a phase contrast microscopic. After 5 additional days of culture, wells containing a single colony were harvested and each collected population was amplified independently.
(§2) For screening experiments, stock solutions of odorant molecules were diluted in EMEM disposed in 96-well plates. Plates containing the tested molecules (1 molecule/well) at a concentration of 2 mM, at a concentration of 632 μM and at a concentration of 200 μM were prepared.
(§3) For concentration-response analysis, serial dilutions of the tested molecules were prepared from stock solutions in EMEM plated into 96-well plates.
(§4) For the initial deorphanisation screening and dose-response analysis, a Luciferase-based gene reporter assay (Promega, Leiden, The Nederlands) was used as described in Saito et al. (2004). Briefly, cells were platted on poly-D-lysine-coated 96-well plates (BD Bioscience, Erembodegem-Dorp, Belgium) and transfected with a plasmid containing the CRE-luciferase and a plasmid containing the olfactory receptor. Sixteen hours after transfection, the culture medium was replaced by serum-free EMEM containing the tested ligand at a determined concentration. After four hours of incubation at 37° C. degree, cells were lysed and processed for luminescence measurement according to the manufacturer's protocols. Luminescene emission was recorded on a Spectra Max M5 reader (Molecular Devices, Sunnyvale, Calif.). Results were expressed as percentage of the response induced by 10 μM of the adenylate cyclase activator Forskolin.
(§5) Each molecule was tested at 3 different concentrations (1 mM, 316 μM, 100 μM). The different molecules of the tested libraries were disposed at the same concentration into 96 well plates (1 well/molecule) containing cells expressing the receptor of interest. The activity of the tested molecules was measured using the lucifierase activity as explained above. The median luciferase activity induced by the tested molecules and the associated standard deviation were determined. Putatively active molecules (hits) were defined as molecules inducing a luciferase activity higher or equal to the median+2 standard deviations.
(§6) The hits were validated by concentration-response analysis. Semi-logarithmic serial dilutions of hit molecules, from 1 mM to 316 nM, were tested on the responding ORs using the luciferase assay as described above.

OR52B2 = molecular target: T2, OR52B2 (Homo sapiens, UniProt Q96RD2); assay: CRE-luciferase reporter assay, OR52B2 in HEK293T-RTP1A1/RTP2 cells
T2 construct: expressed in transfected cells; host or cells: HEK293T-RTP1A1/RTP2
T2 sequence (Q96RD2 1-323): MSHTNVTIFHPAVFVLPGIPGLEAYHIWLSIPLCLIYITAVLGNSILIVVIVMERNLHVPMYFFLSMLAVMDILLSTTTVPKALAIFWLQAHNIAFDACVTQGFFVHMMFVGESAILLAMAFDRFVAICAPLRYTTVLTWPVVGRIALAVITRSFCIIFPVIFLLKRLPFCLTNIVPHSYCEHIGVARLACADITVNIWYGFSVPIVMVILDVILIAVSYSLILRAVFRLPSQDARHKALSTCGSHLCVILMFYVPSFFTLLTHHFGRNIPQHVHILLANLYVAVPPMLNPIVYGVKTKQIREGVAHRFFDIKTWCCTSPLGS
Procedure: as §1, §2, §3, §4, §5, §6

OR51I2 = molecular target: T3, OR51I2 (Homo sapiens, UniProt Q9H344, T134A); assay: CRE-luciferase reporter assay, OR51I2 in HEK293T-RTP1A1/RTP2 cells
T3 construct: expressed in transfected cells; host or cells: HEK293T-RTP1A1/RTP2
T3 sequence (Q9H344 1-312 T134A): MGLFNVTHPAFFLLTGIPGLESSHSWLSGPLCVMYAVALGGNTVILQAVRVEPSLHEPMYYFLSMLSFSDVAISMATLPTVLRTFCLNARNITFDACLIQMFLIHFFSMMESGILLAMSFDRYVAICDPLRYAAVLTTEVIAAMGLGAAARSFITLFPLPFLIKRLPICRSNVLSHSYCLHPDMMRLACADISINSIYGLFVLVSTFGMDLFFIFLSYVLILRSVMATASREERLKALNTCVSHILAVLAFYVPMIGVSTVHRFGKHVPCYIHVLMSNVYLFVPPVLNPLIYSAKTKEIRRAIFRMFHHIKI
Procedure: as §1, §2, §3, §4, §5, §6

OR52A5 = molecular target: T4, OR52A5 (Homo sapiens, UniProt Q9H2C5); assay: CRE-luciferase reporter assay, OR52A5 in HEK293T-RTP1A1/RTP2 cells
T4 construct: expressed in transfected cells; host or cells: HEK293T-RTP1A1/RTP2
T4 sequence (Q9H2C5 1-314 limits assumed): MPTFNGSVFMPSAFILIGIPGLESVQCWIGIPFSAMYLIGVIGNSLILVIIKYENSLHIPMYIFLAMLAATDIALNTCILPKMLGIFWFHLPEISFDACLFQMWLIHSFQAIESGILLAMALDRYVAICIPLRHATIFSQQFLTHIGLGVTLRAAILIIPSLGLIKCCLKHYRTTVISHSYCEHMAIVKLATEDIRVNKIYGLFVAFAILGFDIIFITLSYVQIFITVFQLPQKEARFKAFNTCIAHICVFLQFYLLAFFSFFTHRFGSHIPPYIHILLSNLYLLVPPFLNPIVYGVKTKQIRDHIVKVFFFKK
Procedure: as §1, with “After 5 days of culture, the presence and number of cell colonies per well was checked under a phase contrast microscopic. After 5 additional days of culture, wells containing a single colony were harvested and each collected population was amplified independently.” left out
as §4, with “Briefly, cells were platted on poly-D-lysine-coated 96-well plates (BD Bioscience, Erembodegem-Dorp, Belgium) and transfected with a plasmid containing the CRE-luciferase and a plasmid containing the olfactory receptor.” left out, “Forskolin. […]” for “Forskolin.”

OR52L1 = molecular target: T5, OR52L1 (Homo sapiens, UniProt Q8NGH7, R140C/S130L); assay: CRE-luciferase reporter assay, OR52L1 in HEK293T-RTP1A1/RTP2 cells
T5 construct: expressed in transfected cells; host or cells: HEK293T-RTP1A1/RTP2
T5 sequence (Q8NGH7 1-329 S130L/R140C): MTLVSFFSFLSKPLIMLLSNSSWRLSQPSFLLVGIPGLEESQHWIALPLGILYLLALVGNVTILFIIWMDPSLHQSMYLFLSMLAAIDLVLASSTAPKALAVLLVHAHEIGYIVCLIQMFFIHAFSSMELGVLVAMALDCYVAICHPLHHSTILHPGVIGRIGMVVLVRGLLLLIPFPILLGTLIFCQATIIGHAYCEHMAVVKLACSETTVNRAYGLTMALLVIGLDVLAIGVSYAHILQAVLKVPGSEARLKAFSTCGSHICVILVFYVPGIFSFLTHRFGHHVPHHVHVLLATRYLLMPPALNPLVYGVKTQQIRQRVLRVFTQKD
Procedure: as §1, with “independently. For screening experiments, stock solutions of odorant molecules were diluted in EMEM disposed in 96-well plates. Plates containing the tested molecules (1 molecule/well) at a concentration of 2 mM, at a concentration of 632 μM and at a concentration of 200 μM were prepared. For concentration-response analysis, serial dilutions of the tested molecules were prepared from stock solutions in EMEM plated into 96-well plates. […]” for “independently.”

OR52E1 = molecular target: T6, OR52E1 (Homo sapiens, UniProt Q8NGJ3, F254L/Y278C); assay: CRE-luciferase reporter assay, OR52E1 in HEK293T-RTP1A1/RTP2 cells
T6 construct: expressed in transfected cells; host or cells: HEK293T-RTP1A1/RTP2
Procedure: as §1, with “independently. For screening experiments, stock solutions of odorant molecules were diluted in EMEM disposed in 96-well plates. Plates containing the tested molecules (1 molecule/well) at a concentration of 2 mM, at a concentration of 632 μM and at a concentration of 200 μM were prepared. For concentration-response analysis, serial dilutions of the tested molecules were prepared from stock solutions in EMEM plated into 96-well plates. […]” for “independently.”

OR52E8 = molecular target: T7, OR52E8 (Homo sapiens, UniProt Q6IFG1); assay: CRE-luciferase reporter assay, OR52E8 in HEK293T-RTP1A1/RTP2 cells
T7 construct: expressed in transfected cells; host or cells: HEK293T-RTP1A1/RTP2
Procedure: as §1, with “After 5 days of culture, the presence and number of cell colonies per well was checked under a phase contrast microscopic. After 5 additional days of culture, wells containing a single colony were harvested and each collected population was amplified independently.” left out
as §4, with “Briefly, cells were platted on poly-D-lysine-coated 96-well plates (BD Bioscience, Erembodegem-Dorp, Belgium) and transfected with a plasmid containing the CRE-luciferase and a plasmid containing the olfactory receptor.” left out, “Forskolin. […]” for “Forskolin.”

T7 sequence (Q6IFG1 with tags, fused parts or gaps): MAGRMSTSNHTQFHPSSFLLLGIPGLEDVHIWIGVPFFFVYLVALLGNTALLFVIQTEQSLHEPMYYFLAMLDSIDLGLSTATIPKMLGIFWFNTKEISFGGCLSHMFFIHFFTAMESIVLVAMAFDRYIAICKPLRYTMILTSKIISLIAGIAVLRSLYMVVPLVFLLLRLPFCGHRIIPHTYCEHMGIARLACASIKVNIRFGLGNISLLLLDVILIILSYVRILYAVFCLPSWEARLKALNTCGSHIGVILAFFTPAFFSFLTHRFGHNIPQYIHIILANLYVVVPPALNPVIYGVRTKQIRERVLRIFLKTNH
T6 sequence (Q8NGJ3 whole entry F254L/Y278C): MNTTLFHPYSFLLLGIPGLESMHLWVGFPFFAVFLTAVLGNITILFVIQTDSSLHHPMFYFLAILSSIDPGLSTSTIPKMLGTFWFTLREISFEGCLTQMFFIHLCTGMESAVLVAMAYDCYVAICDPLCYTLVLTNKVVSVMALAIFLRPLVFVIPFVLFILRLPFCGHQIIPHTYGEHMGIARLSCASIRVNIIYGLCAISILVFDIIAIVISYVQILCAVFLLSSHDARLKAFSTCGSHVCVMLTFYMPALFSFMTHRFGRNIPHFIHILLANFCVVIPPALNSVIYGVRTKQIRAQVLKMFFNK

Row | SMILES | activation of OR56A5 (hit in luciferase assay) (OR56A5) | activation of OR52B2 (hit in luciferase assay) (OR52B2) | activation of OR51I2 (hit in luciferase assay) (OR51I2) | further results
1 | CCCCCCC(=O)O [heptanoic acid] | activation | activation | – | –
2 | O=C(O)c1ccccc1 [benzoic acid] | – | – | activation | –
3 | CCCC(C)CC(=O)O (stereo not shown) [3-methylhexanoic acid] | – | – | activation | –
4 | CCCCC(CC)CCC(=O)O (stereo not shown) [4-ethyloctanoic acid] | – | – | – | activation of OR52A5 (hit in luciferase assay) (OR52A5): activation
5 | CCCCC(=O)O [pentanoic acid] | – | – | activation | activation of OR52L1 (hit in luciferase assay) (OR52L1): activation
6 | CCCCC(C)C(=O)O (stereo not shown) [2-methylhexanoic acid] | – | – | activation | –
7 | CCCCCCCC(=O)O [octanoic acid] | activation | activation | – | –
8 | CCCCCCCCC(=O)O [nonanoic acid] | activation | activation | – | –
9 | CCCCCCCCCC(=O)O [decanoic acid] | activation | activation | – | –
10 | CCCC(=O)O [butanoic acid] | – | – | activation | activation of OR52E1 (hit in luciferase assay) (OR52E1): activation
11 | CCCCCC(=O)O [hexanoic acid] | activation | activation | activation | –
12 | CCCC(C)(O)CC(=O)O (stereo not shown) [3-hydroxy-3-methylhexanoic acid] | – | – | – | activation of OR52E8 (hit in luciferase assay) (OR52E8): activation
13 | CCCCCCCCCCC(=O)O [undecanoic acid] | activation | activation | – | –
14 | CC(C)CC(=O)O [isovaleric acid] | – | – | activation | –
15 | CCC/C(C)=C/C(=O)O [(E)-3-methyl-2-hexanoic acid] | – | – | activation | –
16 | CCCCCC(C)C(=O)O (stereo not shown) [2-methylheptanoic acid] | activation | – | – | –
